Measurements taken from patent publication US20230089247A1, “NOVEL COMPOUNDS SUITABLE FOR THE TREATMENT OF DYSLIPIDEMIA” (ZYDUS LIFESCIENCES LIMITED, priority 2019, published 2023).

Experiments:
PCSK9 = PCSK9 (Homo sapiens, UniProt Q8NBP7); experiment: BODIPY-LDL uptake assay in HepG2 cells; assay type: cell-based; conditions: 5 μg/ml PCSK9, BODIPY-LDL
Method in brief: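 Compounds pre-incubated 60 min with 5 μg/ml PCSK9 (0.2% DMSO), then added to HepG2 cells for 16 h; 1 μg/ml BODIPY-LDL added in serum-free medium for 5 h. Fluorescence (Ex 485/Em 520 nm) normalized to protein; PCSK9-only wells = 0%, no-PCSK9 wells = 100% uptake, giving percent increase in LDL uptake.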

High Fat Diet C57 Mice = experiment: LDL-C lowering activity in high fat diet C57 mice; assay type: in vivo; conditions: Mus musculus, po, 168 h; C57 mice on high fat diet; 30 mg/Kg orally once a day, 7 days treatment, blood on day 7; read-out: % Change Vs Vehicle Control in LDLc
Method: LDL-C Lowering Activity—in High Fat Diet C57 Mice
The in-vivo LDL-c lowering for test compound was tested in C57 mice which were kept on high fat diet for 4 weeks and the blood was collected by retro-orbital sinus puncture method under light ether anesthesia on day 0 (pretreatment). Animal are grouped based on LDL-c levels, after that 7 days treatment with vehicle or test compound orally at a dose of 30 mpk dose once a day was given. On completion of treatment on day 7 of the treatment the blood was collected for LDL-c and TC levels measurement.

PCSK9, sequence (Q8NBP7 153-692): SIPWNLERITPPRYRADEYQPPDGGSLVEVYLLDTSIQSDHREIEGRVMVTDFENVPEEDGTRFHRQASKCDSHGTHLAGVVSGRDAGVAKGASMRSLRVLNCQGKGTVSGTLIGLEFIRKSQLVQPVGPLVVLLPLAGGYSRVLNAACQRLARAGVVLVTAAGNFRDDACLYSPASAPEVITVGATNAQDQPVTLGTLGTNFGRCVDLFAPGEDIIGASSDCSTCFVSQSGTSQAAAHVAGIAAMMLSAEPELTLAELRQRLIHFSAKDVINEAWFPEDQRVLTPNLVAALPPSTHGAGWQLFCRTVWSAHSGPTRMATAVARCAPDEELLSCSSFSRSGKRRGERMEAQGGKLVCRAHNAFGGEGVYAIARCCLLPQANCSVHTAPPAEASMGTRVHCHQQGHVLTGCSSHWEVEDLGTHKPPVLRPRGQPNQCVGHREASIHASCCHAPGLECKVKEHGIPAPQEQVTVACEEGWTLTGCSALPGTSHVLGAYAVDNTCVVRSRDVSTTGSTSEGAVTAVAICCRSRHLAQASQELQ

SMILES | % increase in LDL Uptake (PCSK9; 1 μM test compound) | % increase in LDL Uptake (PCSK9; 10 μM test compound) | % increase in LDL Uptake (PCSK9; 30 μM test compound) | change in vivo at 30 mg/kg (High Fat Diet C57 Mice)
[2H]C([2H])([2H])OC1(c2ccc(C(=O)N3CCC(c4ccc(C(F)(F)F)cc4)CC3)cc2)COC1 [Example 76, (4-(3-(methoxy-d3)oxetan-3-yl)phenyl)(4-(4-(trifluoromethyl)phenyl)piperidin-1-yl)methanone] | 10% | 98% | 108% | -28 ± 7%
O=C(c1ccc(C2(O)COC2)cc1)N1CCC(c2ccc(C(F)(F)F)cc2)CC1 [Example 1, (4-(3-hydroxyoxetan-3-yl)phenyl)(4-(4-(trifluoromethyl)phenyl)piperidin-1-yl)methanone] | 25% | 135% | 130% | -52 ± 4%
CCOC1(c2ccc(C(=O)N3CC4CN(c5ccc(C(F)(F)F)cc5)CC4C3)cc2)COC1 (stereo not drawn) [Example 58, (4-(3-ethoxyoxetan-3-yl)phenyl)(5-(4-(trifluoromethyl)phenyl)hexahydropyrrolo[3,4-c]pyrrol-2 (1H)-yl)methanone] | 25% | 21% | 43% | -44 ± 3%
[2H]C([2H])([2H])OC1(c2ccc(C(=O)N3CC4CN(c5ccc(C(F)(F)F)cc5)CC4C3)cc2)COC1 (stereo not drawn) [Example 134, (4-(3-(methoxy-d3)oxetan-3-yl)phenyl)(5-(4-(trifluoromethyl)phenyl)hexahydropyrrolo[3,4-c]pyrrol-2(1H)-yl)methanone] | 3% | 28% | 43% | -38 ± 7%
COC1(c2cccc(C(=O)N3CC4CN(c5ccc(C(F)(F)F)cc5)CC4C3)c2)COC1 (stereo not drawn) [Example 56, (3-(3-methoxyoxetan-3-yl)phenyl)(5-(4-(trifluoromethyl)phenyl)hexahydropyrrolo[3,4-c]pyrrol-2(1H)-yl)methanone] | 55% | 344% | 257% | -5 ± 8%
O=C(c1ccc(C2(O)COC2)cc1)N1CCN(c2ccc(C(F)(F)F)cc2)CC1 [Example 6, (4-(3-hydroxyoxetan-3-yl)phenyl)(4-(4-(trifluoromethyl)phenyl)piperazin-1-yl)methanone] | 0% | 106% | 179% | 0.6 ± 9%
COC1(c2ccc(C(=O)N3CCN(c4ccc(C(F)(F)F)cc4)CC3)cc2)COC1 [Example 53, (4-(3-methoxyoxetan-3-yl)phenyl)(4-(4-(trifluoromethyl)phenyl)piperazin-1-yl)methanone] | 4% | 80% | 129% | -15 ± 6%
COC1(c2ccc(C(=O)N3CCCC(c4ccc(C(F)(F)F)cc4)C3)cc2)COC1 (stereo not drawn) [Example 39, (4-(3-methoxyoxetan-3-yl)phenyl)(3-(4-(trifluoromethyl)phenyl)piperidin-1-yl)methanone] | 26% | 149% | 147% | -29 ± 5%
O=C(c1cccc(C2(O)COC2)c1)N1CCN(c2ccc(C(F)(F)F)cn2)CC1 [Example 220, (3-(3-hydroxyoxetan-3-yl)phenyl)(4-(5-(trifluoromethyl)pyridin-2-yl)piperazin-1-yl)methanone] | 8% | 31% | 56% | -16%
O=C(c1ccc(C2(O)COC2)cc1)N1CCCN(c2ccc(C(F)(F)F)cc2)CC1 [Example 184, (4-(3-hydroxyoxetan-3-yl)phenyl)(4-(4-(trifluoromethyl)phenyl)-1,4-diazepan-1-yl)methanone] | 19% | 117% | 250% | -7 ± 7%
O=C(c1ccc(C2(O)COC2)cc1)N1CC2=C(C1)CN(c1ccc(C(F)(F)F)cc1)C2 [Example 95, (4-(3-hydroxyoxetan-3-yl)phenyl)(5-(4-(trifluoromethyl)phenyl)-3,4,5,6-tetrahydropyrrolo[3,4-c]pyrrol-2(1H)-yl)methanone] | 19% | 127% | 226% | -16 ± 9%
O=C(c1ccc(C2(O)COC2)cc1)N1CC2CN(c3ccc(C(F)(F)F)nc3)CC2C1 (stereo not drawn) [Example 215, (4-(3-hydroxyoxetan-3-yl)phenyl)(5-(6-(trifluoromethyl)pyridin-3-yl)hexahydropyrrolo[3,4-c]pyrrol-2(1H)-yl)methanone] | 0% | 90% | 140% | -29 ± 5%
